Reference: US8338422B2, “Indolin-2-ones and aza-indolin-2-ones” (Janssen Pharmaceutica NV, priority 2007, dated 2012)

Tests used:
SKOV3 = assay: Cellular proliferation assay (Alamar blue), SKOV3; format: cell-based; details: 72 hours with compound, 10% FCS; for pIC50 SKOV3: SKOV3 cells; for IC50: Homo sapiens, SK-OV-3, SKOV3 cells, read-out: pIC50 SKOV3 (converted)
Experimental: (§1) […] functional properties of these compounds was tested in cellular proliferation assays on a panel of different cell lines in the presence of 10% FCS serum (37° C. and 5% (v/v) CO2). In a first step these cells were seeded and incubated for 24 hours in the absence of compound. In the second step the cells were incubated for 72 hours with the compounds to be tested for 72 hours. The viable cell number was finally assessed in a standard Alamar blue cell viability assay.
(§2) The viable cell number was assessed by incubation for either 4 h (HCT-116, H1299, H460) 6 h (SKOV3, HT29, U87-MG, Colo205) or 24 h (A2780, PC3, MDA-MB-231, A549, MCF-7) with Alamar blue (Resazurin 9 μg/ml, K-Ferrocyanide 90 μM K-Ferricyanide 90 μM) and the converted fluorescent product was quantified on a fluorescent plate readed (544 nm/590 nm). Effect of the compounds is calculated as of on control cells.

CDK1/CyclinB (h) = CDK1/CyclinB (h) (Homo sapiens, UniProt P06493); assay: CDK1/CyclinB human kinase assay (FRET); format: biochemical; details: for IC50: read-out: CDK1 pIC50 (converted)
Chain of CDK1/CyclinB (h) (P06493 whole entry): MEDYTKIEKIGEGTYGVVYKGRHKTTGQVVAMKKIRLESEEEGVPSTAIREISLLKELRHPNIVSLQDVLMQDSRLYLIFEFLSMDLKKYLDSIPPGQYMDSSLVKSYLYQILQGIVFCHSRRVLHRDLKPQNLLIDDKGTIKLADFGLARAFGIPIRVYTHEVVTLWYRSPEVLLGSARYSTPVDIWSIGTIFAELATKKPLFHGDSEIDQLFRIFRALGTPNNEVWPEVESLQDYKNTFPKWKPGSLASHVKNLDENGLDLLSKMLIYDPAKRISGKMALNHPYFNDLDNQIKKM
Chain of CDK1/CyclinB (h) (P14635 whole entry partner): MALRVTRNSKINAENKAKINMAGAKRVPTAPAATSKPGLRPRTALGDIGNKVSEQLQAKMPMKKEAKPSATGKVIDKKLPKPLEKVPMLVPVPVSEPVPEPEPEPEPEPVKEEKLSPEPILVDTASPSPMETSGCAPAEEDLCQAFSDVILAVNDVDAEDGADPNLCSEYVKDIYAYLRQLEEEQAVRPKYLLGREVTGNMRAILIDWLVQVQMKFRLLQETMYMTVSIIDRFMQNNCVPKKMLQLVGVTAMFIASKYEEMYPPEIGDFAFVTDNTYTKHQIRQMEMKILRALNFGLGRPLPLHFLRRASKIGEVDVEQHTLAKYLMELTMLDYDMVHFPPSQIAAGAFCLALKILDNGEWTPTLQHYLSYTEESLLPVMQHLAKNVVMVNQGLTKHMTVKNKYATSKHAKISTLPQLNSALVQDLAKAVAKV
Outline: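 Kinase activity was read as the 460/538 nm emission ratio after protease cleavage of unphosphorylated peptide (60 min development). The reaction ran 60 min at room temperature with 10 μM ATP, 2 μM Ser/Thr peptide 12 and 0.2 μg/ml enzyme in Hepes pH 7.5 buffer with MgCl2, EGTA, Brij-35.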

AuroraB (h) = AuroraB (h) (Homo sapiens, UniProt Q96GD4); assay: Aurora-B human kinase assay (SPA); format: biochemical; details: for IC50: read-out: AuroraB pIC50 (converted)
Chain of AuroraB (h) (Q96GD4 whole entry): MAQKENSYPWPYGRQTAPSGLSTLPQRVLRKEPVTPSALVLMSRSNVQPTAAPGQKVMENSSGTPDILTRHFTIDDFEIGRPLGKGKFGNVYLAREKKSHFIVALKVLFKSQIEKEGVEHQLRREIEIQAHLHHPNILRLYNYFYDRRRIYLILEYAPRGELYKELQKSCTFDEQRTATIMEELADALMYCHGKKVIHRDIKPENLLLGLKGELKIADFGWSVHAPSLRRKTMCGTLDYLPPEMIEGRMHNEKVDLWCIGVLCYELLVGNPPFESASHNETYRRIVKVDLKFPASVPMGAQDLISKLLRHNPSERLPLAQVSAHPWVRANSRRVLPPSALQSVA
Outline: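 33P-phosphorylated biotin-substrate captured on streptavidin PVT SPA beads after EDTA-containing stop and imaged on Leadseeker. Reaction: 60 min at room temperature, Hepes pH 7.5 with Mg2+/Mn2+. Conditions: 0.5 μM ATP plus 2.2 nM [γ-33P]ATP, 3 μM substrate, 0.5 μg/ml human AuroraB.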

MDA/MB231 = assay: Cellular proliferation assay (Alamar blue), MDA/MB231; format: cell-based; details: MDA/MB231 cells, 72 hours with compound, 10% FCS; for IC50: Homo sapiens, MDA-MB-231, 72 h, read-out: pIC50 MDA/MB231 (converted)
Outline: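 Cells in 10% FCS were seeded and left 24 h without compound, then treated for 72 h at 37° C. Viability read with Alamar blue (resazurin 9 μg/ml, ferro-/ferricyanide 90 μM each), incubated 4 h for H460 and 24 h for MDA-MB-231; fluorescence 544/590 nm, effect relative to control cells.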

H1299 = assay: Cellular proliferation assay (Alamar blue), H1299; format: cell-based; details: H1299 cells, 72 hours with compound, 10% FCS; for IC50: Homo sapiens, NCI-H1299, 72 h, read-out: pIC50 H1299 (converted)
Outline: (§3)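 Proliferation was assessed over 72 h of compound treatment, following 24 h of seeding without compound, under 10% FCS, 37° C. and 5% CO2. Fluorescent resazurin product was measured and compared with control cells.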

GSK3β (h) = GSK3β (h) (Homo sapiens, UniProt P49841); assay: GSK-3β human kinase assay (SPA); format: biochemical; details: for IC50: read-out: GSK3B pIC50 (converted)
Chain of GSK3β (h) (P49841 whole entry): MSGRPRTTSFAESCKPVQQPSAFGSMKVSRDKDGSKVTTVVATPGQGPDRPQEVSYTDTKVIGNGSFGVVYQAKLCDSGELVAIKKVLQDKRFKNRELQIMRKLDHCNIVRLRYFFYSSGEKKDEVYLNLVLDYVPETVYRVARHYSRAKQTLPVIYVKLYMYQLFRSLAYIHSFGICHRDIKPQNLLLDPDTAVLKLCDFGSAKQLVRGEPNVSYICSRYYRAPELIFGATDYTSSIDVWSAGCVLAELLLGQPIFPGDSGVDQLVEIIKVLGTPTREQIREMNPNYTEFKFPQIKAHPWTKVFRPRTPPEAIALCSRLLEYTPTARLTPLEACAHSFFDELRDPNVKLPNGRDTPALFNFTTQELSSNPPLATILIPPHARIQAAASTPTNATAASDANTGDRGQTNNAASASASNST
Outline: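 Radiometric SPA read-out: after EDTA stop, biotinylated 33P-labelled peptide bound streptavidin PVT beads and was imaged on Leadseeker. Reaction: 60 min, room temperature, GSK3β (h) at 1 μg/ml, 1 μM substrate peptide, 1 μM ATP with 2 nM [γ-33P]ATP, Tris pH 7.4/MgCl2/DTT buffer.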

PLK4 (h) = PLK4 (h) (Homo sapiens, UniProt O00444); assay: PLK-4 human kinase assay (SPA); format: biochemical; details: for IC50: read-out: PLK4 pIC50 (converted)
Chain of PLK4 (h) (O00444 whole entry): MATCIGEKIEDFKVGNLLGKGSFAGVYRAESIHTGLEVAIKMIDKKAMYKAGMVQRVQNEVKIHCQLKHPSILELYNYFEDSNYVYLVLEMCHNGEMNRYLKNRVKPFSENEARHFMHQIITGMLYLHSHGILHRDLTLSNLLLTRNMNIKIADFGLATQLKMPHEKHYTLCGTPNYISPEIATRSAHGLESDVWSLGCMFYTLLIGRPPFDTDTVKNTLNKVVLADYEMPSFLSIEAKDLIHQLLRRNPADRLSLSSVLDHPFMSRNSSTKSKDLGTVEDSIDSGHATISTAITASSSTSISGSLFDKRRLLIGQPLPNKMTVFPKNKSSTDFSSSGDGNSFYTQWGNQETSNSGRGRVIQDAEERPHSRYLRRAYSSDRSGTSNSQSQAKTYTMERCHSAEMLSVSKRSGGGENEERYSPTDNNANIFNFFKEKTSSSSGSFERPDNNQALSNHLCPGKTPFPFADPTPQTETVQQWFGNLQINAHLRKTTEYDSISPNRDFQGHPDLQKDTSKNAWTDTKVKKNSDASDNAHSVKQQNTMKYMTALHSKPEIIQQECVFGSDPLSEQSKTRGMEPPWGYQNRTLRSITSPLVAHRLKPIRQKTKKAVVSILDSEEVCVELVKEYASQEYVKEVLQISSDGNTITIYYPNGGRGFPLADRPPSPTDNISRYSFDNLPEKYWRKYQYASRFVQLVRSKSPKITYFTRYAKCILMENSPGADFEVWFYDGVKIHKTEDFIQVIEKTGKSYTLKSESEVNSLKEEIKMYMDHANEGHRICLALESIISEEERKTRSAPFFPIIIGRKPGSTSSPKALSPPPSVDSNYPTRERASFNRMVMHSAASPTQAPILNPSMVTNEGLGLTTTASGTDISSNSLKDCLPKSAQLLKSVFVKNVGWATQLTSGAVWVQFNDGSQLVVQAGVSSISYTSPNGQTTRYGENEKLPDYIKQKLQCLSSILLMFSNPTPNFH
Outline: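 Radiometric readout: 33P-labelled peptide captured on streptavidin SPA beads after EDTA stop, imaged by Leadseeker. Reaction ran 60 min at room temperature in Hepes pH 8.0 buffer. It contained 1 μM ATP with 2 nM [γ-33P]ATP, 10 μM biotinylated peptide and PLK4 (h) at 19 μg/ml.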

A2780 = assay: Cellular proliferation assay (Alamar blue), A2780; format: cell-based; details: A2780 cells, 72 hours with compound, 10% FCS; for IC50: Homo sapiens, A2780, 72 h, read-out: pIC50 A2780 (converted)
Outline: as §3

U87MG = assay: Cellular proliferation assay (Alamar blue), U87MG; format: cell-based; details: U87MG cells, 72 hours with compound, 10% FCS; for IC50: Homo sapiens, U-87 MG, 72 h, read-out: pIC50 U87MG (converted)
Outline: as §3

PC-3 = assay: Cellular proliferation assay (Alamar blue), PC-3; format: cell-based; details: PC-3 cells, 72 hours with compound, 10% FCS; for IC50: Homo sapiens, PC-3, 72 h, read-out: pIC50 PC-3 (converted)
Outline: as §3

HCT-116 = assay: Cellular proliferation assay (Alamar blue), HCT-116; format: cell-based; details: HCT-116 cells, 72 hours with compound, 10% FCS; for IC50: Homo sapiens, HCT-116, 72 h, read-out: pIC50 HCT-116 (converted)
Outline: as §3

Colo205 = assay: Cellular proliferation assay (Alamar blue), Colo205; format: cell-based; details: Homo sapiens, COLO 205, Colo205 cells, 72 hours with compound, 10% FCS, read-out: pIC50 Colo205 (converted)
Experimental: as §1, §2

A549 = assay: Cellular proliferation assay (Alamar blue), A549; format: cell-based; details: Homo sapiens, A549 cells, 72 hours with compound, 10% FCS, read-out: pIC50 A549 (converted)
Experimental: as §1, §2

HT-29 = assay: Cellular proliferation assay (Alamar blue), HT-29; format: cell-based; details: Homo sapiens, HT-29 cells, 72 hours with compound, 10% FCS, read-out: pIC50 HT-29 (converted)
Experimental: as §1, §2

MCF-7 = assay: Cellular proliferation assay (Alamar blue), MCF-7; format: cell-based; details: Homo sapiens, MCF7, MCF-7 cells, 72 hours with compound, 10% FCS, read-out: pIC50 MCF-7 (converted)
Experimental: as §1, §2

SK-N-SH = assay: Cellular proliferation assay (Alamar blue), SK-N-SH; format: cell-based; details: Homo sapiens, SK-N-SH cells, 72 hours with compound, 10% FCS, read-out: pIC50 SK-N-SH (converted)
Experimental: as §1, §2

DU-145 = assay: Cellular proliferation assay (Alamar blue), DU-145; format: cell-based; details: Homo sapiens, DU-145 cells, 72 hours with compound, 10% FCS, read-out: pIC50 DU-145 (converted)
Experimental: as §1, §2

CN1CCN(c2ccc3cc2CN(C)CCCCCC(=O)N(C)CCCNc2ncnc4c2C(=CN3)C(=O)N4)CC1 (mixture of isomers) [Compound 117]
pIC50 SKOV3 (SKOV3): <5 | CDK1 pIC50 (CDK1/CyclinB (h)): <5 | AuroraB pIC50 (AuroraB (h)): <5 | pIC50 MDA/MB231 (MDA/MB231): 5.06 | pIC50 H1299 (H1299): 5.15 | GSK3B pIC50 (GSK3β (h)): 5.58 | PLK4 pIC50 (PLK4 (h)): 6.5 | pIC50 A2780 (A2780): 5.63 | pIC50 U87MG (U87MG): 5.55 | pIC50 PC-3 (PC-3): <5

CN1CCCNc2ncnc3c2C(=CNc2ccc(N4CCOCC4)c(c2)OCCCCCC1=O)C(=O)N3 (mixture of isomers) [Compound 120]
pIC50 HCT-116 (HCT-116): 5.38 | pIC50 SKOV3 (SKOV3): 5.02 | CDK1 pIC50 (CDK1/CyclinB (h)): 5.86 | AuroraB pIC50 (AuroraB (h)): 5.58 | pIC50 MDA/MB231 (MDA/MB231): 5.03 | pIC50 H1299 (H1299): 5.68 | GSK3B pIC50 (GSK3β (h)): 6.73 | PLK4 pIC50 (PLK4 (h)): 6.67 | pIC50 A2780 (A2780): 5.95 | pIC50 U87MG (U87MG): 5.99 | pIC50 PC-3 (PC-3): <5

CN1CCCNc2ncnc3c2C(=CNc2ccc(N4CCOCC4)c(c2)OCCCCC1=O)C(=O)N3 (mixture of isomers) [Compound 121]
pIC50 HCT-116 (HCT-116): 5.99 | pIC50 SKOV3 (SKOV3): 5.78 | CDK1 pIC50 (CDK1/CyclinB (h)): 6.24 | AuroraB pIC50 (AuroraB (h)): 6.15 | pIC50 MDA/MB231 (MDA/MB231): 5.20 | pIC50 H1299 (H1299): 6.32 | GSK3B pIC50 (GSK3β (h)): 7.45 | PLK4 pIC50 (PLK4 (h)): 7.22 | pIC50 A2780 (A2780): 6.48 | pIC50 U87MG (U87MG): 6.66 | pIC50 PC-3 (PC-3): 5.19

COc1ccc2cc1OCCCC(=O)N(C)CCN(C)C1CCN(CC1)c1ncnc3c1/C(=C/N2)C(=O)N3 [Compound 34]
IC50 (SKOV3): > 10 µM | IC50 (Colo205): > 10 µM | IC50 (A549): > 10 µM | IC50 (HT-29): ~8.32 µM | IC50 (PLK4 (h)): > 10 µM | IC50 (MCF-7): > 10 µM | IC50 (SK-N-SH): 5.25 µM | IC50 (DU-145): > 10 µM

CN1CCN(c2ccc3cc2CN(C)CCCC(=O)N(C)CCNc2ncnc4c2/C(=C/N3)C(=O)N4)CC1 [Compound 116]
IC50 (HCT-116): 6.46 µM | IC50 (SKOV3): > 10 µM | IC50 (CDK1/CyclinB (h)): > 10 µM | IC50 (AuroraB (h)): > 10 µM | IC50 (MDA/MB231): 5.25 µM | IC50 (H1299): 9.77 µM | IC50 (GSK3β (h)): 3.09 µM | IC50 (PLK4 (h)): 5.89 µM | IC50 (A2780): 3.72 µM | IC50 (U87MG): 3.24 µM | IC50 (PC-3): > 10 µM

COc1cc2cc(c1OC)CN(C)CCCC(=O)N(C)CCNc1ncnc3c1/C(=C/N2)C(=O)N3 [Compound 118]
IC50 (HCT-116): > 10 µM | IC50 (SKOV3): > 10 µM | IC50 (CDK1/CyclinB (h)): > 10 µM | IC50 (AuroraB (h)): > 10 µM | IC50 (MDA/MB231): > 10 µM | IC50 (H1299): > 10 µM | IC50 (GSK3β (h)): > 10 µM | IC50 (PLK4 (h)): > 10 µM | IC50 (A2780): > 10 µM | IC50 (U87MG): > 10 µM | IC50 (PC-3): > 10 µM

COc1cc2cc(c1OC)CN(C)CCCCC(=O)N(C)CCNc1ncnc3c1/C(=C/N2)C(=O)N3 [Compound 119]
IC50 (SKOV3): > 10 µM | IC50 (CDK1/CyclinB (h)): 6.31 µM | IC50 (AuroraB (h)): > 10 µM | IC50 (MDA/MB231): > 10 µM | IC50 (H1299): > 10 µM | IC50 (GSK3β (h)): > 10 µM | IC50 (PLK4 (h)): 7.41 µM | IC50 (A2780): 2.57 µM | IC50 (U87MG): > 10 µM | IC50 (PC-3): > 10 µM

CN1CCN(c2ccc3cc2CN(C)CCCCC(=O)N(C)CCCNc2ncnc4c2/C(=C/N3)C(=O)N4)CC1 [Compound 122]
IC50 (SKOV3): 8.32 µM | IC50 (CDK1/CyclinB (h)): 4.68 µM | IC50 (AuroraB (h)): > 10 µM | IC50 (MDA/MB231): 1.95 µM | IC50 (H1299): 1.2 µM | IC50 (GSK3β (h)): 0.575 µM | IC50 (PLK4 (h)): 0.851 µM | IC50 (A2780): 0.288 µM | IC50 (U87MG): 0.708 µM | IC50 (PC-3): 7.94 µM

COc1cc2cc(c1OC)CN(C)CC(=O)N(C)CCNc1ncnc3c1/C(=C/N2)C(=O)N3 [Compound 123]
IC50 (HCT-116): > 10 µM | IC50 (SKOV3): > 10 µM | IC50 (CDK1/CyclinB (h)): > 10 µM | IC50 (AuroraB (h)): > 10 µM | IC50 (MDA/MB231): > 10 µM | IC50 (H1299): > 10 µM | IC50 (GSK3β (h)): > 10 µM | IC50 (PLK4 (h)): > 10 µM | IC50 (A2780): > 10 µM | IC50 (U87MG): > 10 µM | IC50 (PC-3): > 10 µM
